{"source": "patent US7875631B2", "about": "“Tetrahydroisoquinoline-and tetrahydrobenzazepine derivatives as igf-1 r inhibitors” (Analytecon S.A., priority 2004, dated 2011)", "key": {"SK-MEL 28 cells": {"test_system": "SK-MEL 28 cells", "experiment": "Cell death by apoptosis, Annexin V staining, SK-MEL 28", "format": "cell-based, human", "settings": "500 ng/ml", "experimental": "(§1) Jurkat and SK-MEL 28 cells were incubated with the compound (I) from example 3 for 6, 24 and 48 hours, after which the percentage of apoptotic cells were determined by Annexin V staining.\n(§2) The numbers depicted in the Table represent the percentage of Annexin-V positive cells."}, "SK-Mel-28 cells": {"test_system": "SK-Mel-28 cells", "experiment": "Interaction with cell division, mitotic index", "format": "cell-based, human", "settings": "four hours (vehicle 1.7)", "experimental": "The mitotic index was determined after incubation of SK-Mel-28 cells with vehicle, the compound (I) of example 3 and nocodazole for four hours [essentially as described by C. L. Rieder et al.: Current Biology 10(2000) 1067-1070]."}, "Jurkat cells": {"test_system": "Jurkat cells", "experiment": "Cell death by apoptosis, Annexin V staining, Jurkat", "format": "cell-based, human", "settings": "for percentage of Annexin-V positive cells: Jurkat, 500 ng/ml", "experimental": "as §1, §2"}, "insulin receptor (IR)": {"target": "T1, insulin receptor (IR) (Homo sapiens, UniProt P06213)", "T1 construct": "endogenous in cells; host or cells: SK-MEL-28", "T1 sequence (P06213 28-1382)": "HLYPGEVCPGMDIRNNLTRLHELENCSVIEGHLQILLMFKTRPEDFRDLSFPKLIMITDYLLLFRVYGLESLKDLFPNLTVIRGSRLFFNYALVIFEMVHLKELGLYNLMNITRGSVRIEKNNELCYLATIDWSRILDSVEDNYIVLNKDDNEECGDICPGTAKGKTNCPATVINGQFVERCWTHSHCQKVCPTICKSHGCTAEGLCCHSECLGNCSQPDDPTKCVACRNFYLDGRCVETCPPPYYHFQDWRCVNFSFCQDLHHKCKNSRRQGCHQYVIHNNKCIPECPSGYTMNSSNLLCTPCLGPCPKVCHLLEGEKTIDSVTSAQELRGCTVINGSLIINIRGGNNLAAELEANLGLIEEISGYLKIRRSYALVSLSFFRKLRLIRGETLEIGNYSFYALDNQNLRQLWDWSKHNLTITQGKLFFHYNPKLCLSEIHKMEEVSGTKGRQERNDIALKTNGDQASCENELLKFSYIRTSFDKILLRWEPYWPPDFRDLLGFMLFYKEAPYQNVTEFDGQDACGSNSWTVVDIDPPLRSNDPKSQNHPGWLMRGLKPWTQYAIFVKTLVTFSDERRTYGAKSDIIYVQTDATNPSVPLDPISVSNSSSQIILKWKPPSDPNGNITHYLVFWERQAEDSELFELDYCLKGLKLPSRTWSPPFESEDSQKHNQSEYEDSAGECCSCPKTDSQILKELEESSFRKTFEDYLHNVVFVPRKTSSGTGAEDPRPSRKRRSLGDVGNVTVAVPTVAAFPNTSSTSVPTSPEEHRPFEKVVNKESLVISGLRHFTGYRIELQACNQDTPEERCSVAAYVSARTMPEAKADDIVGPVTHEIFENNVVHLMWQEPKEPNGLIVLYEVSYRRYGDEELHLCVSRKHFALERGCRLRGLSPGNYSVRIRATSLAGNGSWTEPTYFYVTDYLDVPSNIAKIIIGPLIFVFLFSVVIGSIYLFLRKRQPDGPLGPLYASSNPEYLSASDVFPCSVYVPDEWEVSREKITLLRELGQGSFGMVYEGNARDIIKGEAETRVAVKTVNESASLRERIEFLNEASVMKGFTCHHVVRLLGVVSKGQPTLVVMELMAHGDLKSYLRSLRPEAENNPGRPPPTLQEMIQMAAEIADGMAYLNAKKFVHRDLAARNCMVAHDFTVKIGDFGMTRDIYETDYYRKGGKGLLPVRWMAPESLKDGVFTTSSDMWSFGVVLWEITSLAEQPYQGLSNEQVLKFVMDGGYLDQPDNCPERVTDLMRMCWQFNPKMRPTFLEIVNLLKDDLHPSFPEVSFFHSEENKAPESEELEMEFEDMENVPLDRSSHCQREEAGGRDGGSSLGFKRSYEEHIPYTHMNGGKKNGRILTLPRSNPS", "experiment": "Inhibition of phosphorylation of insulin receptor (IR) in SK-MEL-28", "format": "cell-based", "settings": "1 microgram/ml, 2 hours", "experimental": "SK-MEL-28 cells (density 60000/cm^2) were grown in 100 mm diameter dishes containing 10 ml RPMI 1640 supplemented with 10% fetal bovine serum (FBS) for 24 hours. After 24 hours fresh medium supplemented with 10% FBS was added together with or without 1 microgram/ml of compound 33. The dishes were incubated at 37° C. for 2 hours, after which the cells were lyzed and subjected to immunoprecipitation using 2 microliter of an anti-IR monoclonal antibody (18-44, ABCAM) and 20 microliter of agarose-conjugated protein G. Antibody-antigen complexes were allowed to form for 4 hours at 4° C. and after that collected by centrifugation at 4° C. for 1 minute at 5000 rpm. Immunoprecipitated complexes were separated by electrophoresis on an 8% polyacrylamide gel and electroblotted onto a nitrocellulose membrane (Amersham Bioscience). The efficiency of the immunoprecipitation was determined by using a polyclonal antibody against the beta-subunit of the insulin receptor (C-19; Santa Cruz Biotech.). Detection of the tyrosine phosphorylation of the insulin receptor was performed by incubation of the nitrocellulose membranes with an anti-phosphotyrosine antibody (4G10, Upstate Biotechnology Ltd., UK). […]"}, "IGF-1R": {"target": "T2, IGF-1R (Homo sapiens, UniProt P08069)", "T2 construct": "endogenous in cells; host or cells: SK-MEL-28", "T2 sequence (P08069 31-1367)": "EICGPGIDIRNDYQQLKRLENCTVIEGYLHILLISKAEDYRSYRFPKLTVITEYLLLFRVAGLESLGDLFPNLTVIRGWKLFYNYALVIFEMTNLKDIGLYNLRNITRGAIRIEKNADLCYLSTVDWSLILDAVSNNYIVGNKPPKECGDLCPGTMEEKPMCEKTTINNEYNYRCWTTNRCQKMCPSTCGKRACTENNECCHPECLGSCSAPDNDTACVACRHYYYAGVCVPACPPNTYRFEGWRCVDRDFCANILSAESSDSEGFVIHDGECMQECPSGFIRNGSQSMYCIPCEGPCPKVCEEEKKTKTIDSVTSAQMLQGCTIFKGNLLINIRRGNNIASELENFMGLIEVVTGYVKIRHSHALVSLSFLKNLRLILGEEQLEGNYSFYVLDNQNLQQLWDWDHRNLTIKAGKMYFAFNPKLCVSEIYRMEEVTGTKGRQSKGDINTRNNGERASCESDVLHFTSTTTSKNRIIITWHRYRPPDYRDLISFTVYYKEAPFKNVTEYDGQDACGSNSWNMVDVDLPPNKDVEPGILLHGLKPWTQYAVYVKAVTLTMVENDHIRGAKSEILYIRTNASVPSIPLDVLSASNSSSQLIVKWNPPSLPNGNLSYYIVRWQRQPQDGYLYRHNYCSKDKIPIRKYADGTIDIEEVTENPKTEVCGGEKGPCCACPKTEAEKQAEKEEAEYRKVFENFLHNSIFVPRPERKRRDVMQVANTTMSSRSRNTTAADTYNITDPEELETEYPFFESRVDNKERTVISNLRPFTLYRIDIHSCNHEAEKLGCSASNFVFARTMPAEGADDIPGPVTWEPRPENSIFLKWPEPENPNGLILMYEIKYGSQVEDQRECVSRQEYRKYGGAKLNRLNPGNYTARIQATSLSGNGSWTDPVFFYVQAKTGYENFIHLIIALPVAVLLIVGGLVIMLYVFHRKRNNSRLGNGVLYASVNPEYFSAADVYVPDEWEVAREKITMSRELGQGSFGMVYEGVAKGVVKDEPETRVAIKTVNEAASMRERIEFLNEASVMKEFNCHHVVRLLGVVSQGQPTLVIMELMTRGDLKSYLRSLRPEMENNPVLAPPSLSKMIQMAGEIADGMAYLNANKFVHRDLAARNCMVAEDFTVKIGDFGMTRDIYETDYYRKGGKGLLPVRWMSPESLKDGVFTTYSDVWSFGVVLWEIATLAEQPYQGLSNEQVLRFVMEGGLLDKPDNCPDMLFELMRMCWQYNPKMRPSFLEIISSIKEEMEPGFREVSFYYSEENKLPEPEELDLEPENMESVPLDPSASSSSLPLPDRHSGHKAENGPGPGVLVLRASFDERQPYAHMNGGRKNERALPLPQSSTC", "experiment": "Inhibition of phosphorylation of IGF-1R in SK-MEL-28", "format": "cell-based", "settings": "compound 1000 ng/ml for 2 hours, IGF-1 20 ng/ml for 5 minutes; IGF-1 alone = 100", "experimental": "IGF-1R: Assay without treatment with compounds (I). (Essentially as described by M. Rubini et al. Exp. Cell Res. 230(1997) 284-292).\nSK-MEL-28 cells (density 60000/cm^2; 100 mm diameter dish containing 10 ml RPMI 1640) were starved for 24 hours at 37° C. and thereafter treated for 5 minutes at 37° C. with IGF-1 (200 ng, Sigma). Untreated cells served as control. The cells were lyzed and subjected to immunoprecipitation using a specific antibody against IGF-1R (alfa-IR3, Oncogene Science). Immunoprecipitates were separated by polyacrylamide gel electrophoresis and transferred to nitrocellulose membranes (Amersham Bioscience). The immunoprecipitated IGF-1 receptor was located on the nitrocellulose membrane using an antibody against the alfa-subunit of the IGF-1R (N-20:sc-712, Santa Cruz Biotech.). Detection of the tyrosine phosphorylation of the IGF-1 receptor was performed by incubation of the nitrocellulose membranes with an anti-phosphotyrosine antibody (4G10, Upstate Biotechnology Ltd., UK). To reveal the anti-IGF-1R rabbit polyclonal antibody and the anti-phosphotyrosine mouse monoclonal antibody, the membranes were incubated with anti-rabbit IgG and anti-mouse IgG antibodies coupled to HRP, respectively, and visualized by the use of an enhanced chemiluminescence (ECL) detection system (Pierce). […]"}}, "data": [{"smiles": "COc1ccc2c(c1)CCN(C(C)=O)C2c1cc(OC)c(OC)c(OC)c1", "note": "(racemic) [Example 3, 1-(3,4,5-trimethoxyphenyl)-2-acetyl-6-methoxy-1,2,3,4-tetrahydroisoquinoline]", "values": [{"measurement": "percentage of Annexin-V positive cells", "setting": "SK-MEL 28 cells; SK-Mel-28, 6 hours", "value": 8, "unit": "%"}, {"measurement": "percentage of Annexin-V positive cells", "setting": "SK-MEL 28 cells; SK-Mel-28, 24 hours", "value": 16, "unit": "%"}, {"measurement": "percentage of Annexin-V positive cells", "setting": "SK-MEL 28 cells; SK-Mel-28, 48 hours", "value": 70, "unit": "%"}, {"measurement": "mitotic index SK-Mel-28", "setting": "SK-Mel-28 cells; 300 ng/ml", "value": 5}, {"measurement": "percentage of Annexin-V positive cells", "setting": "Jurkat cells; 6 hours", "value": 8, "unit": "%"}, {"measurement": "percentage of Annexin-V positive cells", "setting": "Jurkat cells; 24 hours", "value": 89, "unit": "%"}, {"measurement": "induction of apoptosis", "setting": "Jurkat cells; tested cell lines (Jurkat and SK-MEL 28), slower kinetics than SuperFasL", "value": "induces apoptosis"}]}, {"smiles": "COc1ccc2c(c1)CCN(C#N)C2c1cc(OC)c(OC)c(OC)c1", "note": "(single isomer, unassigned; (-)) [Example 33, (−)-1-(3,4,5-trimethoxyphenyl)-2-cyano-6-methoxy-1,2,3,4-tetrahydroisoquinoline]", "values": [{"measurement": "difference in phosphorylation of the insulin receptor versus untreated cells", "setting": "insulin receptor (IR)", "value": "No difference"}]}, {"smiles": "COc1ccc2c(c1)CCCN(C)C2c1cc(OC)c(OC)c(OC)c1.Cl", "note": "(stereo not shown) [Example 31, 1-(3,4,5-trimethoxyphenyl)-2-methyl-7-methoxy-2,3,4,5-tetrahydro-1H-2-bezazepine hydrochloride]", "values": [{"measurement": "% phosphorylation of IGF-1R in SK-MEL-28 cells", "setting": "IGF-1R", "value": 10, "unit": "%"}]}, {"smiles": "COC(=O)Nc1nc2ccc(C(=O)c3cccs3)cc2[nH]1", "note": "[Nocodazole, reference compound]", "values": [{"measurement": "mitotic index SK-Mel-28", "setting": "SK-Mel-28 cells; 10 μM", "value": 2.9}]}]}
